Source: US12564586B2, “Kappa opiod receptor antagonists for treating pain-related sleep disorders” (ARIZONA BOARD OF REGENTS ON BEHALF OF THE UNIVERSITY OF …, priority 2020, dated 2026)
“Also recorded” adds a separate entry of the source.

Columns and labels:
[1] = system: PSNL mice (chronic neuropathic pain model); experiment: EEG/EMG sleep evaluation in the chronic pain model induced by partial sciatic nerve ligation (PSNL); format: in vivo, C57BL/6J mice; settings: for components of pain-related sleep disturbance (sleep time loss, fragmentation of sleep, daytime sleepiness): mouse model of chronic neuropathic pain, summary statement; for duration of non-REM sleep (sleep fragmentation): 6-hour intervals
sham surgery mice = experiment: EEG/EMG sleep evaluation in sham surgery mice; format: in vivo, C57BL/6J mice
Procedure: Norbinaltorphimine (nor-BNI) was dissolved in 0.9% saline to 10 mg/kg just before injection. C57BL/6J mice received intraperitoneal injection of nor-BNI or vehicle (0.9% saline) 30 minutes before EEG/EMG record at 10 days after partial sciatic nerve ligation (PSNL) surgery (FIG. 2A). CYM-53093 was synthesized as described previously by Guerrero et al. It was dissolved in DMSO, tween and saline at a ratio of 1:1:8. C57BL/6J mice were implanted with a micro-osmotic pump under the skin at 8 days after PSNL surgery and received continuous infusion of CYM-53093 (10 mg/kg/day) or vehicle. Mice had surgical recovery for 1 day after pump implantation followed by EEG/EMG record for 5 days (FIG. 3A).
EEG/EMG recording head-mount implantation was done under 2-5% isoflurane anesthesia, mice were implanted with EEG and EMG electrodes for polysomnographic recordings (Pinnacle Technology, Oregon, USA) as described previously by Ito et al. Recording was done in awake animals after acclimatization using EEG/EMG mouse sleep equipment from Pinnacle Technology. The collected EEG/EMG data were analyzed by software (Sleepsign; Kissei Comtec, Japan). The vigilance of every 5-second epoch was automatically classified into three stages, i.e., wakefulness, REM and non-REM sleep, according to the standard criteria. As a final step, defined sleep-wake stages were examined visually and corrected, if necessary. The vigilance states were assessed as follows: 1) wakefulness was defined by a high EMG amplitude, low EEG amplitude; 2) REM sleep was defined by a low EMG amplitude, low EEG amplitude, and high 0 wave (5.0-10.0 Hz) activity; and 3) non-REM sleep was defined by a low EMG amplitude, high EEG amplitude, and high 8 wave (0.65-4.5 Hz) activity.
To investigate the effect of the long acting KOR antagonist, nor-BNI, on sleep disruption in preclinical model of chronic pain, the percentage of sleep time for 24 hours between the groups administered nor-BNI or vehicle 10 days after partial sciatic nerve ligation (PSNL), and baseline before PSNL surgery were compared (FIG. 2A). The sham groups were also evaluated in the same time series as PSNL groups. […] First, in order to evaluate the sleep-wake cycle of each group, the changes in the percentage of sleep time were examined every two hours. […] Secondly, the percentage of total sleep (FIG. 2D), non-REM sleep (FIG. 2E), and REM sleep (FIG. 2F) were evaluated and time in the light phase and dark phase were evaluated separately. […] Then, duration of awake and non-REM sleep was evaluated at 6-hour intervals (early and late light phase and early and late dark phase), and compared between baseline, sham/vehicle group, PSNL/vehicle group, sham/nor-BNI group, and PSNL/nor-BNI group.

PSNL mice = experiment: von Frey test (paw withdrawal threshold, tactile allodynia); format: in vivo; settings: nor-BNI, naïve or injured (PSNL) animals
[2] = PSNL, continuous infusion of CYM-53093 10 mg/kg/day, 10 mg/kg/day
[3] = PSNL group, nor-BNI 10 mg/kg i.p.
[4] = sham animals, nor-BNI treated vs vehicle treated

| SMILES | fragmentation of non-REM sleep ([1]; PSNL, continuous infusion of CYM-53093 10 mg/kg/day) | sleep time ([1]; PSNL, continuous infusion of CYM-53093 10 mg/kg/day by micro-osmotic pump, 5-day recording, 10 mg/kg/day) | power density of δ wave during non-REM sleep ([1]; PSNL, continuous infusion of CYM-53093 10 mg/kg/day, test day 4, 10 mg/kg/day) | REM sleep [1, 2] | duration of wakefulness at the first half of the dark phase [1, 2] | non-REM sleep [1, 2] | components of pain-related sleep disturbance (sleep time loss, fragmentation of sleep, daytime sleepiness) [1] | REM sleep time [1, 3] | duration of wakefulness during the early half of the dark phase [1, 3] | non-REM sleep time [1, 3] | percentage of total sleep ([1]; PSNL group, nor-BNI 10 mg/kg i.p. 10 days after PSNL, light phase) [%] | duration of non-REM sleep (sleep fragmentation) [1, 3] | duration of non-REM sleep (sleep fragmentation) ([1]; PSNL group, nor-BNI 10 mg/kg i.p., listed as Nor-BNI) | sleep time (percentage of sleep time every two hours) ([1]; PSNL group, nor-BNI 10 mg/kg i.p., vs baseline before PSNL surgery) | power spectrum during non-REM sleep ([1]; nor-BNI 10 mg/kg i.p.) | percentage of non-REM sleep (sham surgery mice; [4]) | percentage of total sleep (sham surgery mice; [4]) | sleep time (percentage of sleep time every two hours) (sham surgery mice; sham groups, nor-BNI 10 mg/kg i.p.) | REM sleep time (sham surgery mice; sham mice, nor-BNI 10 mg/kg i.p.) | evoked (mechanical/tactile) allodynia, paw withdrawal threshold (PSNL mice) |
| --- | --- | --- | --- | --- | --- | --- | --- | --- | --- | --- | --- | --- | --- | --- | --- | --- | --- | --- | --- | --- |
| CCc1cc(F)c2nc(N3CCC(NC4CCOCC4)CC3)c(-c3nc(C)no3)c(C)c2c1 [CYM53093] | normalized fragmentation of non-REM sleep | normalized the reduction of sleep time up until day 4; also recorded: normalized the reduction of sleep time and the effect lasted at least until day 4 | no change in the power density; also recorded: did not change | did not improve REM sleep | improved non-REM sleep, wakefulness during the first part of the dark phase; also recorded: improved short duration of wakefulness at the first half of the dark phase | improved non-REM sleep; also recorded: mainly influenced non-REM sleep | improved several important components of pain-related sleep disturbance | – | – | – | – | – | – | – | – | – | – | – | – | – |
| Oc1ccc2c3c1O[C@H]1c4[nH]c5c(c4C[C@@]4(O)[C@@H](C2)N(CC2CC2)CC[C@]314)C[C@@]1(O)[C@H]2Cc3ccc(O)c4c3[C@@]1(CCN2CC1CC1)[C@H]5O4 [nor-BNI, Norbinaltorphimine] | – | – | – | – | – | – | improved several important components of pain-related sleep disturbance | did not improve REM sleep time | improved the inability to stay awake during the dark (active) time of the day; also recorded: tended to extend this duration somewhat, it was not significant | increased non-REM sleep time | 71.4±1.3 | improved sleep fragmentation in PSNL during non-REM sleep | improved this fragmented sleep by PSNL | normalized the deficit of sleep time of the partial sciatic nerve ligation (PSNL) group to the same as baseline; also recorded: normalized the reduction of sleep time of the PSNL group almost to the same level as baseline | did not change the power spectrum; also recorded: unchanged in both groups | no significant difference in the percentage of total sleep and non-REM sleep | no significant difference in the percentage of total sleep and non-REM sleep | had no effect in the sham surgery group; also recorded: had no significant effect on sleep time | significantly reduced REM sleep time in sham mice | did not alter mechanical allodynia in naïve or injured animals; also recorded: did not influence the evoked allodynia |
